Reference: US6949350B1, “Chemosensitivity determination using phosphatidylserine” (Evotec Analytical Systems GmbH, priority 1999, dated 2005)
Starred links: 1 amine or outer side, 2 acyl side, 3 side chain; linkers in the order of their positions; H or OH if unused. Positions of bridges follow the written chain, without caps; N, C: chain ends. Non-standard residues stand in square brackets, D forms with d. Residues, ends and D or L forms follow the SMILES beside them. Chains are numbered I, II in the order given. Actinocin(9to1) = Cc1c2oc3c(C)ccc(C(=O)[*:1])c3nc-2c(C(=O)[*:2])c(N)c1=O; NMeV = CN[C@H](C(=O)O)C(C)C; Sar = CNCC(=O)O

Key:
[1] = marker which binds phosphatidylserine; binding depends on calcium cations; cited from earlier work
Jurkat P40 cells = assay: time-resolved apoptosis detection with fluorescence-labeled annexin V by fluorescence microscopy; format: cell-based; conditions: 1 μg/ml
Experimental: 100,000 Jurkat P40 cells were simultaneously mixed with 1 μg/ml actinomycin D in the presence of 2 mM CaCl2 and fluorescence-labeled annexin V and incubated at 37° C. in 5% CO2 over a period of up to 24 h. After 4, 6, 8, 10 and 24 h, an aliquot was withdrawn, applied to a glass slide, fixed and analyzed by fluorescence microscopy. […] When the time elapsed was extended and the cell destruction more advanced, there would be a time when fluorescent cell debris would no longer be visible. It was shown that apoptosis in a solution can be followed in a time-resolved manner by recording images at different times. The reaction mix was prepared at the beginning, and subsequently, the increasing apoptosis was only analyzed by means of imaging methods.

## annexin V: marker which binds phosphatidylserine
[1]
  Kd: 0.5 nM

## Cc1c2oc3c(C)ccc(C(=O)N[C@@H]4C(=O)N[C@H](C(C)C)C(=O)N5CCC[C@H]5C(=O)N(C)CC(=O)N(C)[C@@H](C(C)C)C(=O)O[C@@H]4C)c3nc-2c(C(=O)N[C@@H]2C(=O)N[C@H](C(C)C)C(=O)N3CCC[C@H]3C(=O)N(C)CC(=O)N(C)[C@@H](C(C)C)C(=O)O[C@@H]2C)c(N)c1=O [actinomycin D] (I: T[dV]P[Sar][NMeV] / II: T[dV]P[Sar][NMeV]; ester I:1-I:C, II:1-II:C; linker I:N-II:N via Actinocin(9to1))
Jurkat P40 cells; 100,000 Jurkat P40 cells, 2 mM CaCl2, 37° C., 5% CO2, aliquots after 4, 6, 8, 10 and 24 h
  degree of apoptosis (number of annexin V stained cells in the observation field): the degree of apoptosis increases
Jurkat P40 cells; Jurkat P40 cells, after 24 h
  secondary necrosis (cell fragments): smaller cell fragments become visible which indicate secondary necrosis
